Reference: PMC5069690, “Hepatic 3D spheroid models for the detection and study of compounds with cholestatic liability” (Scientific Reports, 2016)
“And” between values parts separate entries of the source, which are not always exact repeats. Equal entries are not always repeated. Where two headings read alike, the source gives them in different places.

What was measured:
[1] = test system: multi-donor PHH spheroids; assay: Repeated-exposure toxicity in multi-donor PHH spheroids with or without BA mixture, albumin secretion; assay type: cell-based, human; settings: for EC50: Homo sapiens, 336 h, 14 days repeated exposure; for Cholestatic Index (EC50 (+BA) / EC50 (-BA)) / Cholestatic risk classification based on CIx: 14 days; for Cholestatic risk classification based on CIx: multi-donor PHH spheroids
Procedure: The cells were seeded in PHH medium (Williams’ medium E containing 100 units/ml penicillin, 100 μg/ml streptomycin, 2 mM L-glutamine, 10 μg/ml insulin, 5.5 μg/ml transferrin, 6.7 ng/ml sodium selenite, 100 nM dexamethasone) supplemented with 10% fetal bovine serum. […] When PHH had reassembled into compact aggregates (day 4–6 after seeding), spheroids were shifted to serum-free PHH medium. […] The spheroids were maintained in serum-free PHH medium.
(§1) Toxicity studies were started at day 8 and day 5 for PHH and HepaRG spheroids, respectively.

[2] = test system: ABCB11, SRXN1, NFE2L2, DR5 expression in PHH spheroids; assay: RT-qPCR gene expression in PHH spheroids; assay type: cell-based, human; settings: 8 days
Procedure: (§2) Total RNA was extracted using Qiazol according to the manufacturer’s protocol. RNA was reverse-transcribed into cDNA with SuperScript III reverse transcriptase. RT-qPCR analysis was performed with a 7500 Fast Real-Time PCR system using a TaqMan Universal or SYBR Green mix.

[3] = test system: PHH spheroids; assay: Repeated-exposure toxicity in PHH spheroids with or without BA mixture, cellular ATP content;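 for all read-outs here: primary human hepatocyte spheroids dosed every second day with compound, with or without a bile acid mixture, viability read as cellular ATP by luminescence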; settings: for CC50: Homo sapiens; for CC50 / Cholestatic Index (EC50 (+BA) / EC50 (-BA)): one value per independent experiment; for CIx (mean of the independent experiments) / Cholestatic risk classification based on CIx / Cholestatic Index (EC50 (+BA) / EC50 (-BA)) / CIx: PHH spheroids; for CIx (mean of the independent experiments): 8 days co-exposure with BAs vs compound alone; for Cholestatic Index (EC50 (+BA) / EC50 (-BA)): ATP; for CIx: cellular ATP content read-out, Supplementary Fig. S2A
Procedure: Cryopreserved PHH (Bioreclamation IVT, USA) were thawed according to the supplier’s instructions. The cells were seeded in PHH medium (Williams’ medium E containing 100 units/ml penicillin, 100 μg/ml streptomycin, 2 mM L-glutamine, 10 μg/ml insulin, 5.5 μg/ml transferrin, 6.7 ng/ml sodium selenite, 100 nM dexamethasone) supplemented with 10% fetal bovine serum. The cells were seeded at a density of 1,500 viable cells per well in ultra-low attachment (ULA) plates (Corning). When PHH had reassembled into compact aggregates (day 4–6 after seeding), spheroids were shifted to serum-free PHH medium. […] The hepatocytes were derived from 5 male and 5 female donors and were aggregated into 3D microtissues in GravityPLUS™ hanging drop plates and cultivated and assayed in GravityTRAP™ plates. The spheroids were maintained in serum-free PHH medium.
(§5) Stock solutions of the compounds were diluted in culture medium to a maximal final DMSO concentration of 0.3% for PHH spheroids and 0.6% for HepaRG spheroids. Toxicity studies were started at day 8 and day 5 for PHH and HepaRG spheroids, respectively. Spheroids were treated every other day with the compounds in the presence or absence of the BA mixture. Cellular ATP content was determined as a marker of cell viability using the CellTiter-Glo Luminescent Cell Viability Assay (Promega, Sweden). When indicated, albumin concentrations were determined by ELISA (Bethyl laboratories, USA).
(§6) To evaluate the cholestatic risk of the tested compounds we introduced the cholestatic index (CIx). The CIx is defined as the ratio between the EC50-value from co-exposure to a compound and the BA mixture and the EC50-value from exposure to the compound alone.

[4] = test system: HepaRG spheroids; assay: Repeated-exposure toxicity in HepaRG spheroids with or without BA mixture, cellular ATP content; assay type: cell-based, human; settings: for CC50: Homo sapiens, HepaRG, compound alone, read-out: Without BA EC50; for CC50 / Cholestatic Index (EC50 (+BA) / EC50 (-BA)): ATP, one value per independent experiment
Procedure: Cryopreserved differentiated HepaRG cells (Biopredic International, France) were thawed according to the supplier’s instructions. The cells were seeded in Williams’ medium E with GlutaMAX^TM containing the thaw, seed and general purpose additive (ADD670; Biopredic International). The cells were seeded at a density of 2,000 viable cells per well in ULA plates. From day 5, the spheroids were maintained in medium containing 0.5% DMSO, the serum-free induction additive (ADD650, Biopredic International), 20 ng/ml epidermal growth factor and 10 ng/ml hepatocyte growth factor (HumaXpress, Nordic BioSite, Sweden).
as §1

[5] = test system: ABCB11, SRXN1, NFE2L2, DR5 expression in HepaRG spheroids; assay: RT-qPCR gene expression in HepaRG spheroids; assay type: cell-based, human; settings: 8 days; for DR5 expression / NFE2L2 expression / SRXN1 expression: co-exposure with non-toxic BA mixture compared to compound or BAs alone
Procedure: as §2

[6] = test system: HepaRG spheroids; assay: Bile acid accumulation (fluorescent taurocholic acid derivative, confocal microscopy) in HepaRG spheroids; assay type: cell-based, human
Procedure: (§3) BA accumulation was assessed with a fluorescently labelled taurocholic acid derivative, tauro-nor-THCA-25-DBD (Genomembrane Company, Ltd, Japan). After 6 days of chlorpromazine exposure, the spheroids were co-exposed to chlorpromazine and 20 μM tauro-nor-THCA-25-DBD for an additional 2 days. Fluorescence was assessed by confocal microscopy (Zeiss LSM 710).

[7] = test system: F-actin cytoskeleton in PHH spheroids; assay: F-actin cytoskeleton integrity (Phalloidin staining) in PHH spheroids; assay type: cell-based, human; settings: 8 days
Procedure: (§4) Spheroids were fixed in 4% paraformaldehyde at 4 °C O/N. Immunohistochemistry was performed on cryosections (8 μm) for BSEP (Atlas, Sweden) and MRP2 (Abcam, UK). […] F-actin was visualized using Alexa Fluor 488 Phalloidin. Slides were mounted with ProLong Gold Antifade Mountant with DAPI and fluorescence was assessed by confocal microscopy (Zeiss LSM 710). Surface expression of the BA transporters was quantified using CellProfiler software.

[8] = test system: BSEP; settings: quoted in the discussion, no reference given; read-out: BSEP inhibition IC50; cited from earlier work
[9] = test system: PHH spheroids; assay: Toxicity in PHH spheroids with or without BA mixture, albumin secretion read-out (Supplementary Fig. S2); settings: 8 days, Supplementary Fig. S2B
Procedure: as §5, §6

[10] = test system: F-actin cytoskeleton in HepaRG spheroids; assay: F-actin cytoskeleton integrity (Phalloidin staining) in HepaRG spheroids; assay type: cell-based, human; settings: 8 days
Procedure: as §4

[11] = test system: PHH spheroids; assay: Bile acid accumulation (fluorescent taurocholic acid derivative, confocal microscopy) in PHH spheroids; assay type: cell-based, human; settings: repeated exposure for 8 days
Procedure: as §3

[12] = multi-donor PHH spheroids (10 donors), co-exposure with BA mixture, albumin secretion, read-out: With BA EC50
[13] = multi-donor PHH spheroids (10 donors), compound alone, albumin secretion, read-out: Without BA EC50
[14] = multi-donor PHH spheroids (10 donors), albumin secretion
[15] = co-exposure with non-toxic BA mixture compared to compound or BAs alone
[16] = 192 h, read-out: Without BA EC50, PHH spheroids, 8 days repeated exposure, compound alone, ATP
[17] = 336 h, read-out: Without BA EC50, PHH spheroids, 14 days repeated exposure, compound alone, ATP
[18] = 8 days co-exposure with BAs vs compound alone
[19] = 192 h, 8 days repeated exposure
[20] = 336 h, 14 days repeated exposure

Compound	EC50 [1, 12] [µM]	EC50 [1, 13] [µM]	CC50 [3, 16] [µM]	CC50 [3, 17] [µM]	CIx (mean of the independent experiments) [3]	CIx (mean of the independent experiments) [4, 18]	CC50 [4, 19] [µM]	CC50 [4, 20] [µM]	Cholestatic Index (EC50 (+BA) / EC50 (-BA)) ([1]; both, human)	IC50 [8] [µM]	Cholestatic risk classification based on CIx ([3]; 8 days)	Cholestatic Index (EC50 (+BA) / EC50 (-BA)) ([3]; 8 days)	Cholestatic Index (EC50 (+BA) / EC50 (-BA)) ([3]; 14 days)	Cholestatic risk classification based on CIx ([4]; 8 days)	Cholestatic Index (EC50 (+BA) / EC50 (-BA)) ([4]; 8 days)	Cholestatic Index (EC50 (+BA) / EC50 (-BA)) ([4]; 14 days)	other results
Clc1ccccc1CN1CCc2sccc2C1 [Ticlopidine, ticlopidine]	21	23															
CCC(=O)O[C@H]1[C@H](O[C@@H]2[C@@H](C)[C@H](O[C@H]3C[C@@](C)(OC)[C@@H](O)[C@H](C)O3)[C@@H](C)C(=O)O[C@H](CC)[C@@](C)(O)[C@H](O)[C@@H](C)C(=O)[C@H](C)C[C@@]2(C)O)O[C@H](C)C[C@@H]1N(C)C [Erythromycin estolate, erythromycin estolate]	18	28															Cholestatic Index (EC50 (+BA) / EC50 (-BA)) [1, 14]: 0.64; Cholestatic risk classification based on CIx [1]: cholestatic risk (compounds with a CIx ≤ 0.80 were considered to have cholestatic risk)
CC(=O)Nc1ccc(O)cc1 [Acetaminophen, acetaminophen]	1830	1910	1090	804	1.89 ± 0.37	1.02 ± 0.03	1600	1000									DR5 expression [2, 15]: no induction of DR5; NFE2L2 expression [2, 15]: no changes in SRXN1 or NFE2L2 expression; SRXN1 expression [2, 15]: no changes in SRXN1 or NFE2L2 expression; DR5 expression [5]: no induction of DR5; NFE2L2 expression [5]: no changes in SRXN1 or NFE2L2 expression; SRXN1 expression [5]: no changes in SRXN1 or NFE2L2 expression
CN(C)CCCN1c2ccccc2Sc2ccc(Cl)cc21 [Chlorpromazine, chlorpromazine]	1.7	4.5	14	12	0.90 ± 0.12	0.87 ± 0.06	17	14	0.38	148	low cholestatic risk (Compounds with a CIx ≥ 0.80)	0.85 and 1.07 and 0.83	0.80 and 0.71 and 0.77	low cholestatic risk (Compounds with a CIx ≥ 0.80)	0.88 and 0.81 and 0.93	0.63 and 0.65 and 0.69	toxicity to the spheroids ([6]; 10 μM, 8 days): toxic; intracellular BA accumulation (tauro-nor-THCA-24-DBD) ([6]; repeated exposure for 8 days): cytoplasmic accumulation; DR5 expression [2, 15]: significantly induced DR5; NFE2L2 expression [2, 15]: significantly further increased NFE2L2 expression; SRXN1 expression [2, 15]: significant induction of SRXN1; expression of ABCB11, encoding BSEP ([2]; normalized to GAPDH): inhibited the expression of ABCB11; DR5 expression ([2]; toxic concentration alone (80x BA; 12.5 µM CPZ), Supplementary Fig. S3): no change in DR5 expression; F-actin expression and integrity [7]: reduced F-actin expression and disrupted its integrity; CIx [9]: 0.69; CIx ([3]; 8 days): 0.75; Cholestatic risk classification based on CIx ([3]; 14 days): cholestatic risk (compounds with a CIx ≤ 0.80 were considered to have cholestatic risk); Cholestatic risk classification based on CIx ([4]; 14 days): cholestatic risk (compounds with a CIx ≤ 0.80 were considered to have cholestatic risk); CIx (mean of the independent experiments) ([4]; 14 days of repeated exposure): 0.66 ± 0.03; F-actin expression and integrity [10]: reduced F-actin expression and disrupted its integrity; DR5 expression [5]: significantly induced DR5; NFE2L2 expression [5]: significantly further increased NFE2L2 expression; SRXN1 expression [5]: significant induction of SRXN1; expression of ABCB11, encoding BSEP ([5]; normalized to GAPDH): inhibited the expression of ABCB11; intracellular BA accumulation (tauro-nor-THCA-24-DBD) [11]: cytoplasmic accumulation
CN(CCOc1ccc(CC2SC(=O)NC2=O)cc1)c1ccccn1 (stereo not shown) [Rosiglitazone, rosiglitazone]	17	19							0.89								
Cc1c(C)c2c(c(C)c1O)CCC(C)(COc1ccc(CC3SC(=O)NC3=O)cc1)O2 (stereo not shown) [Troglitazone, troglitazone]	8.8	14	11	6.2	0.80 ± 0.17	0.71 ± 0.17			0.63	2.7	cholestatic risk (compounds with a CIx ≤ 0.80 were considered to have cholestatic risk)	0.99 and 0.72 and 0.67	0.45 and 0.67 and 0.86	cholestatic risk (compounds with a CIx ≤ 0.80 were considered to have cholestatic risk)	0.56 and 0.90 and 0.67		
Cc1ccc(C(=O)c2cc(O)c(O)c([N+](=O)[O-])c2)cc1 [Tolcapone, tolcapone]	13	14							0.93								
CN(C)[C@@H]1C(O)=C(C(N)=O)C(=O)[C@@]2(O)C(O)=C3C(=O)c4c(O)cccc4[C@@](C)(O)[C@H]3C[C@@H]12 [Tetracycline, tetracycline]	123	120	116	74	1.00 ± 0.08	1.05 ± 0.12	242	121			low cholestatic risk (Compounds with a CIx ≥ 0.80)	1.01 and 0.91 and 1.07	1.41 and 1.07 and 0.94	low cholestatic risk (Compounds with a CIx ≥ 0.80)	0.91 and 1.13 and 1.12	0.95 and 1.18 and 1.16	Cholestatic Index (EC50 (+BA) / EC50 (-BA)) [1, 14]: 1.03; Cholestatic risk classification based on CIx [1]: low cholestatic risk (Compounds with a CIx ≥ 0.80); CIx [9]: 1.08; CIx ([3]; 8 days): 0.87; Cholestatic risk classification based on CIx ([3]; 14 days): low cholestatic risk (Compounds with a CIx ≥ 0.80); Cholestatic risk classification based on CIx ([4]; 14 days): low cholestatic risk (Compounds with a CIx ≥ 0.80)
COc1ccccc1Oc1c(NS(=O)(=O)c2ccc(C(C)(C)C)cc2)nc(-c2ncccn2)nc1OCCO [Bosentan, bosentan]	54	102	66	55	0.19 ± 0.12	0.60 ± 0.06	187	115	0.53	38.1	cholestatic risk (compounds with a CIx ≤ 0.80 were considered to have cholestatic risk)		0.11 and 0.12 and 0.16	cholestatic risk (compounds with a CIx ≤ 0.80 were considered to have cholestatic risk)	0.63 and 0.54 and 0.64	0.61 and 0.50 and 0.48	
